From ChEMBL document CHEMBL1144356 (J Med Chem, 2005)

Tests used:
[1] = In vitro binding affinity for PPAR-alpha; set-up: species or system Homo sapiens
[2] = target: T1, Peroxisome proliferator-activated receptor gamma (Homo sapiens, UniProt P37231); assay: In vitro binding affinity for PPAR-gamma
T1 sequence (P37231 whole entry): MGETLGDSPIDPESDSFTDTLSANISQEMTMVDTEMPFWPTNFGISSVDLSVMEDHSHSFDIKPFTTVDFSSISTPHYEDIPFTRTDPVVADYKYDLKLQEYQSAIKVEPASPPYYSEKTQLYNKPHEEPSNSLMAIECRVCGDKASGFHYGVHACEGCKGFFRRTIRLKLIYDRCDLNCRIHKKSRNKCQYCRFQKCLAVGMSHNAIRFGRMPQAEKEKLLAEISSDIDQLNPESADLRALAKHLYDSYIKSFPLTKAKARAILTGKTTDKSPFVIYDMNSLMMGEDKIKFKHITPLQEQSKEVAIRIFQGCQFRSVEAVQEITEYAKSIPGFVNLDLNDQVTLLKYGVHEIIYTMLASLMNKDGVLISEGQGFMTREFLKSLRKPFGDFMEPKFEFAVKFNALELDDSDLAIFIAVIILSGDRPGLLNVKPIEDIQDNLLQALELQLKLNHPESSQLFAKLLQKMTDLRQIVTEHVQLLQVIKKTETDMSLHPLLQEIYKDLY

[3] = target: T2, Peroxisome proliferator-activated receptor delta (Homo sapiens, UniProt Q03181); assay: In vitro binding affinity for PPAR-delta
T2 sequence (Q03181 whole entry): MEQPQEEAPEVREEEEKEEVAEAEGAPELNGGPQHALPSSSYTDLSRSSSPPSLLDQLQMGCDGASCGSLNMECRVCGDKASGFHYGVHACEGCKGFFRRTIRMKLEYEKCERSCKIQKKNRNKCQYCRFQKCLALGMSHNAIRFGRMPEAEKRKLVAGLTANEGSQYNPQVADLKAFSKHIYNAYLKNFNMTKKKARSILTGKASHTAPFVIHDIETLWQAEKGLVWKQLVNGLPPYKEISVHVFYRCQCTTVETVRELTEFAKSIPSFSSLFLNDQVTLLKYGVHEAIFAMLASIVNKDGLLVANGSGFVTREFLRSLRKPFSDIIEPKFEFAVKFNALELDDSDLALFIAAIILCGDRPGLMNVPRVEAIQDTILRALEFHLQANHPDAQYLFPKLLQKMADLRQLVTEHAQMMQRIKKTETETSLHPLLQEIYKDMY

[4] = target: T3, Peroxisome proliferator-activated receptor alpha (Canis lupus familiaris, UniProt Q95N78); assay: Effective concentration against canine PPAR-alpha in Gal4 transactivation assay
T3 sequence (Q95N78 whole entry): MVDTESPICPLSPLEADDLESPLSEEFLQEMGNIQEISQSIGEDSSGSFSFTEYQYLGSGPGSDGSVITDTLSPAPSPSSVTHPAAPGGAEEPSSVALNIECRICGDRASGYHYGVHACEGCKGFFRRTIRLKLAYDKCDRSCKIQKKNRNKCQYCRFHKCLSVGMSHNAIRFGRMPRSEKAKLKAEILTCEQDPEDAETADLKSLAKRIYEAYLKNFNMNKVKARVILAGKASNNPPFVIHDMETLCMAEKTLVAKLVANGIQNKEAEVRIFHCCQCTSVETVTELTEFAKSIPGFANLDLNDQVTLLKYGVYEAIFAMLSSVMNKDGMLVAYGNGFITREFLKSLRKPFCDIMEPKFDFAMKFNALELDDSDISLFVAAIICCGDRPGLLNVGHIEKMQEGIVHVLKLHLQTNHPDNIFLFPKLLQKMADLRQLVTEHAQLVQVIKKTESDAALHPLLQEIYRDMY

[5] = tested on: Cricetinae gen. sp.; assay: Effect at an oral dose of 100 mg/kg/day for 14 days on serum triglyceride level of hamster; type: functional, Cricetulus griseus
[6] = tested on: Canis familiaris; assay: Effect on cholesterol lowering in male Beagle dog at an oral dose of 50 mkd for 10 days; type: functional, Canis lupus familiaris
[7] = tested on: Canis familiaris; assay: Effect on cholesterol lowering in male Beagle dog at an oral dose of 50 mkd for 7 days; type: functional, Canis lupus familiaris
[8] = tested on: Cricetinae gen. sp.; assay: Effect at an oral dose of 100 mg/kg/day for 14 days on serum cholesterol level of hamster; type: functional, Cricetulus griseus
[9] = tested on: Canis familiaris; assay: Effect on cholesterol lowering in male Beagle dog at an oral dose of 50 mkd for 3 days; type: functional, Canis lupus familiaris
[10] = tested on: Canis familiaris; assay: Effect on cholesterol lowering in male Beagle dog at an oral dose of 50 mkd for 15 days; type: functional, Canis lupus familiaris
[11] = tested on: Cricetinae gen. sp.; assay: Effect at an oral dose of 0.1 mg/kg/day for 14 days on serum cholesterol level of hamster; type: functional, Cricetulus griseus
[12] = tested on: Cricetinae gen. sp.; assay: Effect at an oral dose of 0.1 mg/kg/day for 14 days on serum triglyceride level of hamster; type: functional, Cricetulus griseus
[13] = tested on: Cricetinae gen. sp.; assay: Effect at an oral dose of 0.3 mg/kg/day for 14 days on serum triglyceride level of hamster; type: functional, Cricetulus griseus
[14] = tested on: Cricetinae gen. sp.; assay: Effect at an oral dose of 0.3 mg/kg/day for 14 days on serum cholesterol level of hamster; type: functional, Cricetulus griseus
[15] = target: T4, Peroxisome proliferator-activated receptor alpha (Homo sapiens, UniProt Q07869); assay: Effective concentration against human PPAR-alpha in Gal4 transactivation assay; type: functional
T4 sequence (Q07869 whole entry): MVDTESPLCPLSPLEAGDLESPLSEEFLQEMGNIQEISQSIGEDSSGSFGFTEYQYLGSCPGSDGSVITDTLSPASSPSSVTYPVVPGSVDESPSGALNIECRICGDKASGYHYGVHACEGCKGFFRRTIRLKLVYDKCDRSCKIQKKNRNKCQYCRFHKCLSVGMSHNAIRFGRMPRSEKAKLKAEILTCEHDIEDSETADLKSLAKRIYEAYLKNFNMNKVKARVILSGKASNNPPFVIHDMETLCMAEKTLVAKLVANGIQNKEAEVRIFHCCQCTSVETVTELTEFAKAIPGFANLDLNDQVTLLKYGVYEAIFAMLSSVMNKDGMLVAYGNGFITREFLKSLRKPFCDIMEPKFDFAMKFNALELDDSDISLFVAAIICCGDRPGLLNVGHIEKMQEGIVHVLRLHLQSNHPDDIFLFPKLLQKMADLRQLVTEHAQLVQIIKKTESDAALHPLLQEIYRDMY

[16] = target: T1, Peroxisome proliferator-activated receptor gamma; assay: Effective concentration against human PPAR-gamma in Gal4 transactivation assay; 28% response at 3 uM; type: functional
[17] = target: T1, Peroxisome proliferator-activated receptor gamma; assay: Effective concentration against human PPAR-gamma in Gal4 transactivation assay; 2% response at 3 uM; type: functional
[18] = target: T1, Peroxisome proliferator-activated receptor gamma; assay: Effective concentration against human PPAR-gamma in Gal4 transactivation assay; 4% response at 3 uM; type: functional
[19] = target: T1, Peroxisome proliferator-activated receptor gamma; assay: Effective concentration against human PPAR-gamma in Gal4 transactivation assay; type: functional
[20] = target: T1, Peroxisome proliferator-activated receptor gamma; assay: Effective concentration against human PPAR-gamma in Gal4 transactivation assay; 11% response at 3 uM; type: functional
[21] = target: T1, Peroxisome proliferator-activated receptor gamma; assay: Effective concentration against human PPAR-gamma in Gal4 transactivation assay; 59% response at 3 uM; type: functional
[22] = target: T1, Peroxisome proliferator-activated receptor gamma; assay: Effective concentration against human PPAR-gamma in Gal4 transactivation assay; 56% response at 3 uM; type: functional

Row | SMILES | IC50 [1] [nM] | IC50 [2] [µM] | IC50 [3] [µM] | EC50 [4] [nM] | EC50 [15] [nM] | further results
1 | CC(C)OC(=O)C(C)(C)Oc1ccc(C(=O)c2ccc(Cl)cc2)cc1 [FENOFIBRATE] |  |  |  |  |  | TG [5]: -24.08%; TC [6]: -5.9%; TC [7]: -5.5%; TC [8]: -28.55%; TC [9]: -2.2%; TC [10]: -12.3%
2 | O=C(O)C1(C(F)(F)F)Cc2cc(OCCCOc3ccc(CC(F)(F)F)cc3Cl)ccc2O1 (racemic) | 9 | > 15 | 0.399 | 26 | 37 | EC50 [17]: > 3 µM
3 | CC(C)[C@@]1(C(=O)O)Cc2cc(OCCOc3ccc(OC(F)(F)F)cc3Cl)ccc2O1 | 264 | > 50 | > 50 | 10 | 57 | EC50 [18]: > 3 µM
4 | CC(C)[C@@]1(C(=O)O)Cc2cc(OCCCOc3cc(C(F)(F)F)ccc3Cl)ccc2O1 | 162 | > 15 | > 15 | 42 | 41 | EC50 [20]: > 3 µM

More lines, main results first:

Row | IC50 [1] [nM] | IC50 [2] [µM] | IC50 [3] [µM] | EC50 [4] [nM] | EC50 [15] [nM] | SMILES | further results
5 | 22 | 3.22 | 1.19 | < 1 |  | CCC1(C(=O)O)Cc2ccc(OCCCOc3ccc(OC(F)(F)F)cc3Cl)cc2O1 (stereo not drawn) | 
6 | 42 | > 15 | 0.834 |  |  | CCC1(C(=O)O)Cc2cc(OCCCOc3ccc(C(F)(F)F)cc3Cl)ccc2O1 (racemic) | 
7 | 4 | > 15 | > 15 | < 1 | 2 | CC[C@@]1(C(=O)O)Cc2cc(OCCCOc3ccc(CC(F)(F)F)cc3Cl)ccc2O1 | TC [11]: -33%; TG [12]: -13%; TG [13]: -26%; TC [14]: -37%; EC50 [16]: > 3 µM
8 | 21 | > 15 | > 15 | 2 |  | CC[C@@]1(C(=O)O)Cc2cc(OCCCOc3ccc(CCC(F)(F)F)cc3Cl)ccc2O1 | 
9 | 106 | > 15 | > 15 | 42 | 138 | CC1(C(=O)O)Cc2cc(OCCCOc3ccc(OCC(F)(F)F)cc3Cl)ccc2O1 (racemic) | EC50 [19]: > 3 µM
10 | 11 | 3.11 | 5.23 | < 1 | 8 | CCCc1cc(SC(F)(F)F)ccc1OCCCOc1ccc2c(c1)CC(CC)(C(=O)O)O2 (racemic) | EC50 [21]: > 3 µM
11 | 17 | 4.33 | > 15 | 20 | 9 | CCC1(C(=O)O)Cc2cc(OCCCOc3ccc(C(C)(C)C)cc3Cl)ccc2O1 (racemic) | EC50 [22]: > 3 µM
